Results as given in patent US8785452B2, “Anti-infective compounds” (priority 2008, dated 2014).
Where two headings read alike, the source gives them in different places.

Tests used:
[1] = tested on: M. tuberculosis H37Rv-GFP; assay: microbe, parasite or virus in culture; format: cell-based, Mycobacterium tuberculosis; details: Mycobacterium tuberculosis, H37RV, Macrophage
[2] = tested on: Raw264.7 cells; details: mouse, 5 days; for Primary QIM CellNb: 20 μM
[3] = tested on: Raw264.7 cells; assay: Cell number (CellNb) from image analysis of the phenotypic cell-based assay; details: for Primary QIM CellNb: primary screen, 20 μM
[4] = confirmation, 20 uM, read-out: QIM Confirm % Inhibition 20 uM
[5] = primary screen, 20 μM, read-out: Primary QIM % Inhibition

Compound	inhibition at 20 µM [1, 4] [%]	inhibition at 20 µM [1, 5] [%]	Primary QIM CellNb [2]	Primary QIM CellNb [3]	QIM Confirm CellNb 0.2 uM ([2]; 0.2 uM)	QIM Confirm CellNb 2 uM ([2]; 2 uM)	QIM Confirm CellNb 2 uM ([3]; confirmation, 2 uM)
O=C(N/N=C/c1cc(Br)cc([N+](=O)[O-])c1O)c1ccncc1 [IPK 000 080 81]	99.5	94.7	104.9	363.3			
COc1ccc(/C=N/NC(=O)c2ccncc2)c(OC)c1 [IPK 000 043 00]	102	104	101.4	333.3			
O=C(Nc1cccc(C(F)(F)F)c1)Nc1ccc(Cl)c(Cl)c1 [IPK 000 052 50]	76.4	45	10.8	44.0			
Cc1ccc(NC(=O)c2ccc([N+](=O)[O-])cc2Cl)cc1C [IPK 000 047 15]	85.8	69.7	61.1	281.8			
O=[N+]([O-])c1cc(Br)cc(/C=N/c2ccccc2O)c1O [IPK 000 080 69]	16.5	-42.5	37.6	123.5			
O=C(N/N=C/c1cc2ccccc2[nH]1)c1ccncc1 [IPK 000 043 12]	100	69.9	104.6	195.0			
COc1cc(CN(C)NC(=O)c2ccccn2)ccc1OC(=O)c1cccs1 [IPK 000 058 20]	44.3	98.1	66.6	344.8			
O=C(COc1ccccc1-c1ccccc1)N/N=C\c1ccc([N+](=O)[O-])s1 [IPK 000 103 28]	71.3	71.1	49.5	134.3			
O=C(N/N=C/c1ccc(O)cc1O)c1ccncc1 [IPK 000 043 28]	95.9	94.9	87.1	326.5			
NNC(=O)c1ccc(COc2ccccc2Cl)o1 [IPK 000 123 03]	72.1	78.3	12.0	540.8			
NNC(=O)c1ccc(COc2ccccc2Br)o1 [IPK 000 124 64]	78.2	79.9	54.7	501.5			
COc1cc(/C=N/NC(=O)c2ccncc2)ccc1O [IPK 000 042 97]	103	99.7	99.2	307.8			
CCc1ccc(/C=N/NC(=O)c2ccncc2)cc1 [IPK 000 043 31]	100	94.6	101.5	334.0			
O=C(N/N=C/c1ccc(F)cc1)c1ccncc1 [IPK 000 041 52]	93.7	75.6	103.2	262.5			
CC(=O)Oc1ccccc1C(=S)Nc1ccccc1 [IPK 000 042 77]	48.9	105	7.7	367.0			
CN1C/C(=C\c2ccccc2Br)C(=O)/C(=C/c2ccccc2Br)C1 [IPK 000 102 36]	66.5	65.6	4.4	193.3			
Cc1ccccc1NC(=O)c1c(NC(=O)c2ccccc2Cl)sc2c1CCC2 [IPK 000 073 71]	65.2	87.5	29.8	218.3	45.3		
CC(/C=N/NC(=O)c1ccccn1)=C\c1ccco1 [IPK 000 110 79]	83.4	72.9	22.8	462.3			
O=C(Nc1cccnc1)c1ccc(COc2ccc3ccccc3c2)o1 [IPK 000 124 43]	64.7	35.6	26.2	168.3			
Cc1ccc(NC(=O)c2c(NC(=O)C(F)(F)F)sc3c2CCC3)c(C)c1 [IPK 000 077 22]	46.6	-33	33.3	84.5			
Cc1cc(/C=C(/C#N)C(=O)Nc2cccc(Br)c2)c(C)n1-c1ccc(C(=O)O)cc1 [IPK 000 113 05]	56.4	55.4	31.6	162.0			
Cc1ccc(/C=N/NC(=O)c2ccncc2)cc1 [IPK 000 041 50]	90.8	81.6	102.2	296.3			
CCOc1ccccc1/C=N/NC(=O)c1ccncc1 [IPK 000 043 27]	102	47.6	105.2	125.8			

Compound	inhibition at 20 µM [1, 4] [%]	inhibition at 20 µM [1, 5] [%]	Primary QIM CellNb [2]	Primary QIM CellNb [3]	QIM Confirm CellNb 0.2 uM ([2]; 0.2 uM)	QIM Confirm CellNb 2 uM ([2]; 2 uM)	QIM Confirm CellNb 2 uM ([3]; confirmation, 2 uM)
O=C(N/N=C/c1ccc[nH]1)c1ccccn1 [IPK 000 058 21]	56	90.9	75.7	452.5			
O=C(N/N=C/c1ccc([N+](=O)[O-])s1)C1CCN(Cc2ccc(Br)cc2)CC1 [IPK 000 091 49]	95.1	90.5	9.3	110.5			
O=C(N/N=C/c1ccc(Br)cc1)c1ccncc1 [IPK 000 041 51]	94	89	102.9	351.3			
C/C(=N\NC(N)=S)c1ccccc1O [IPK 000 080 38]	3.4	21	32.1	307.5			
O=C(Nc1nccs1)c1ccc(COc2ccc(Cl)cc2)o1 [IPK 000 124 54]	75	75.5	16.4	503.3			
CC(Oc1cccc2ccccc12)C(=O)NNC(=O)c1cc2ccccc2oc1=O (stereo not drawn) [IPK 000 095 07]	75.8	70.9	8.0	388.3			
N#Cc1cc(Br)c([N+](=O)[O-])cc1C#N [IPK 000 042 72]	57.6	11.9	−1.9	152.0		82.5	96.1
CCOC(=O)/C=C/C(=O)Nc1sc(Cc2ccccc2)c(C)c1C(N)=O [IPK 000 110 16]	86	59	6.0	179.5			
Cc1nc2c(o1)NC(N)=C(C#N)C2c1c[nH]nc1C (stereo not drawn) [IPK 000 065 03]	73.2	68.2	1.1	197.8			
CCCOC(=O)C1=C(C)NC2=C(C(=O)CC(c3ccccc3)C2)C1c1cccc(O)c1 (stereo not drawn) [IPK 000 085 99]	49.5	37.1	4.5	67.3			
COc1cccc(/C=N/NC(=O)c2ccncc2)c1OC [IPK 000 043 02]	99.8	81.1	98.7	229.5			
COc1cc(/C=N/NC(=O)c2ccncc2)cc(Br)c1OC [IPK 000 078 53]	107	84	95.6	386.0			
O=C(N/N=C/c1cc2c(cc1[N+](=O)[O-])OCO2)c1ccncc1 [IPK 000 058 30]	70.8	95.5	98.3	315.8			
O=C(NC12CC3CC(CC(C3)C1)C2)c1ccc([N+](=O)[O-])cc1 [IPK 000 113 77]	74.3	60.9	48.4	319.8			
CCOc1ccc2ccccc2c1/C=N/NC(=O)c1ccncc1 [IPK 000 043 62]	104	98.2	98.8	393.8			
CC(C)c1ccc(/C=N/NC(=O)c2ccncc2)cc1 [IPK 000 043 32]	102	60.5	94.5	164.0			
CCCCc1ccc(NC(=O)c2ccc([N+](=O)[O-])cc2Cl)cc1 [IPK 000 047 17]	88.5	57.6	69.7	152.3			
Cc1ccc(C(=O)NC2CCCCCC2)cc1[N+](=O)[O-] [IPK 000 047 06]	69.9	57.3	17.6	290.8			
O=C(Nc1cc(Cl)cc(Cl)c1)c1cc([N+](=O)[O-])ccc1Cl [IPK 000 049 20]	88.6	71.5	54.8	155.5			
CCN1C/C(=C\c2ccc3c(c2)OCO3)C(=O)/C(=C/c2ccc3c(c2)OCO3)C1 [IPK 000 102 52]	68.1	70.4	−7.0	179.8			
O=C(Nc1sc2c(c1C(=O)Nc1ccccc1)CCC2)c1cccs1 [IPK 000 042 30]	95.9	73.7	75.2	193.8			
Cc1ccccc1/C=N/NC(=O)c1ccncc1 [IPK 000 043 29]	100	111	105.2	415.5			
